Experimental data: paper PMC12063043, “Exploring Tyramine's Role in the Formation of Supramolecular Adducts with Nonsteroidal Anti‐Inflammatory Drugs” (Chemistry (Weinheim an Der Bergstrasse, Germany), 2025)
Converted amounts (≈) assume the structure as drawn.

Tests used:
[1] = Aqueous solubility tests by solution 1H NMR; settings: for solubility at 3 days: deionized water, water, thermodynamic from solid
[2] = pKa of the co-former TYA and the APIs, and ΔpKa rule; assay type: physicochemical; settings: heading: ΔpKa [= pKa – pKa]; for the adduct of the API (acid) with TYA (base)
[3] = ref PubChem; cited from earlier work

CC(C(=O)O)c1ccc(-c2ccccc2)c(F)c1 (racemic) [FLU, (±)‐2‐(2‐fluorobiphenyl‐4‐yl)propionic acid]
solubility at 3 days [1]: 0.019 ± 0.002 mg/mL (≈ 77.8 µM)
ΔpKa [2]: 5.44

O=C(O)c1cc(-c2ccc(F)cc2F)ccc1O [DIF, 2′,4′‐difluoro‐4‐hydroxy‐[1,1′‐biphenyl]‐3‐carboxylic acid]
solubility at 3 days [1]: 0.028 ± 0.002 mg/mL (≈ 112 µM)
ΔpKa [2]: 6.36

NCCc1ccc(O)cc1.O=C(O)c1cc(-c2ccc(F)cc2F)ccc1O [DIF-TYA Form II]
Increase in aqueous solubility of adduct versus pure API ([1]; aqueous solution, adduct versus pure API): 17 fold
Aqueous solubility ([1]; deionized H2O, stirred 3 days, filtered, 1H NMR at 298 K with TSP internal standard, concentration of the drug in solution, average of three measurements ± standard deviation): 0.473 ± 0.079 mg/mL

NCCc1ccc(O)cc1 [TYA, 4‐(2‐aminoethyl)phenol]
pKa [3]: 9.66^[ ^a ^]
